# Patent US20220401408A1, “COMPOSITIONS AND METHODS FOR RESCUING RETINAL AND CHOROIDAL STRUCTURE AND FUNCTION” (AUCKLAND UNISERVICES LIMITED, priority 2019, published 2022)
# Tested on: hyperglycemic rats
# Experiment: OCT in hyperglycemic rat diabetic retinopathy model (aneurysms, layer thickness)
# Type: in vivo, SD rats (spontaneously hyperglycemic strain)
# Excerpt: Hyperglycemic Rat Diabetic Retinopathy Model—A spontaneously hyperglycemic strain of SD rats, which developed clinical signs of diabetic retinopathy within 4 weeks of birth were identified and isolated within the Vernon Jansen Animal Research Unit, Faculty of Medical and Health Sciences at the University of Auckland. The identification of these rats presenting with hyperglycemia and microaneurysms provided an opportunity to treat a complex, chronic disease model and assess the treatment effect based upon objective, measurable endpoints, despite lacking precise information on the etiology of the disease. Inbreeding was carried out over three generations and eyes were screened for abnormalities between 4-8 weeks of age. Additional information about these rats is presented as supplementary information. Glucose levels were tested in non-fasting rats (Lee J J, Yi H Y, Yang J W, Shin J S, Kwon J H, Kim C W. Characterization of streptozotocin-induced diabetic rats and pharmacodynamics of insulin formulations. Biosci Biotechnol Biochem. 2003; 67:2396-401) using a Freestyle Optium Glucometer (Abbott Laboratories Ltd., UK) and Freestyle Optium glucose strips.
# Ten rats per group were the selected (10 normal SD and 10 hyperglycemic) grown to 5 weeks of age and assessed using OCT and ERG. The hyperglycemic rat group was then split into two subgroups of five, with one subgroup fed tonabersat once daily for 14 days from weeks 5 to 7 at a low dose level of 0.28 mg/kg in 0.5 g peanut butter, with the other subgroup fed 0.5 g peanut butter only. All animals were assessed again using ERG and OCT at 8 weeks of age before euthanizing animals and removing the eyes for immunohistochemical analysis. Data groups were randomized prior to the statistical comparison. In summary, normal SD and hyperglycemic rats were analyzed with OCT and ERG at 5 weeks of age; the hyperglycemic rats were then split into two groups and fed the vehicle or tonabersat for 14 days during weeks 6 and 7 of age. At week 8, animals were again assessed with ERG and OCT and tissues collected for immunohistochemical analysis. Four tonabersat-treated rats were, however, left until 3 months of age before final ERG and OCT and tissue collection.
# Evans Blue Dye Assessment of Vessel Leak—To investigate whether micro- and macro-aneurysms in the hyperglycemic rat retinas (observed using OCT) reflect sites of vessel leak, rats were perfused at the age of 3 months with Evans Blue dye as previously described. Cai S, Yang Q, Hou M, Han Q, Zhang H, Wang J, et al. Alpha-Melanocyte-Stimulating Hormone Protects Early Diabetic Retina from Blood-Retinal Barrier Breakdown and Vascular Leakage via MC4R. Cell Physiol Biochem. 2018; 45:505-22. Briefly, Evans Blue dye (30 mg/ml; Sigma-Aldrich, USA) was dissolved in normal saline and filtered. The dye was delivered as an injection into the rat-tail vein of normal SD and hyperglycemic rats at 45 mg/kg and allowed to circulate for 2 hours. Eyes were enucleated while rats were under deep anesthesia and an intracardial injection of 3M KCl was then administered rapidly to euthanize the animals. The posterior segment cups were fixed whole in 4% paraformaldehyde for 30 min and the retinas removed and laid flat. Evans Blue was stimulated at 559 nm wavelength and visualized by its red fluorescence emission using Olympus FluoView FV1000 (Olympus Corporation, Tokyo, Japan). […]
# [1] = 0.28 mg/kg once daily 14 days, week 8
structure (smiles),measurement,setting,value
"CC(=O)c1ccc2c(c1)[C@H](NC(=O)c1ccc(F)c(Cl)c1)[C@H](O)C(C)(C)O2 [tonabersat, N-[(3S,4S)-6-acetyl-3-hydroxy-2,2-dimethyl-3,4-dihydrochromen-4-yl]-3-chloro-4-fluorobenzamide]",number and size of microaneurysms after treatment,[1],differences
same,"retinal layer thickness (INL or ONL) or thickness of the choroid, treated vs untreated",[1],no significant difference
same,hyperreflective spot on OCT after treatment,"0.28 mg/kg once daily for 14 days, 8 weeks",barely visible
same,"clinical signs, including the presence of aneurysms","DR model, daily treatment for two weeks",reduced
same,micro- and macro-aneurysms compared to placebo controls,"oral, DR model",regression
